The source of these data is US20030208067A1, “Inhibitors of protein kinase for the treatment of disease” (priority 2001, published 2003).

What is called LC50 is the concentration that kills 50% of the test population.

The target of one test is CDK5 complexed with p25 (Homo sapiens, UniProt Q00535). The test can be described thus: Cyclin dependent kinase activity assay (33P peptide phosphorylation). To be noted: 0.1 mM ATP, read-out: CDK 5 Activity*. The test is classed as biochemical. As to the method: (§1) The assay of cyclin dependent kinase activity was determined by monitoring the phosphorylation of a synthetic peptide, PKTPKKAKKLRRR. The assay mixture contained 0.1 mM cold ATP, ^33P-γ-ATP (2000-4000 cpm/μL), 0.1 mM peptide, 1 mM DDt, and 10 mM MgCl2 in 100 mM HEPES buffer pH 7.4. The assay mixture, along with inhibitor and CDK enzyme (0.3-0.4 U/mL; either CDK5 complexed with p25, CDK2 complexed with complexed with cyclin A), was mixed together in a microtiter plate in a final volume of 40 μL, sealed and incubated for 2 hours at 30° C. Following incubation, a 15 μL aliquot was added to a Whatman P81 filtration plate containing 100 μL 0.5% phosphoric acid. This mixture was allowed to stand for 5 minutes prior to filtration on a vacuum manifold. The filter plate was washed with 5 successive additions of 300 μL 0.5% phosphoric acid. The filtration plate was air dried for 10 minutes before sealing the bottom. After addition of scintillation fluid to the sealed plate, phosphorylated peptide was quantified in a scintillation counter.

A further test deals with KDR (Homo sapiens, UniProt P35968). In words: Enzyme assay for EGFR2 (KDR). The test is classed as biochemical. To be noted: 50 nM KDR; 500 μM ATP. As to the method:
Enzyme assays for IC50 determinations were performed in 96-well titer plates, in a total reaction volume of 50 μL. Each reaction contained 1.5 μL of appropriate dilutions of inhibitor, 50 mM Hepes, pH 7.4, 1 mM DTT, 10 mM magnesium chloride, 2 mM phospho-poly(E4Y) (Sigma Chemical Company), 500 μM unlabeled ATP, 0.0025 μM [^33P]ATP (Amersham Pharmacia Biotech), and 50 nM KDR. All components except KDR were added to the wells, and the reaction was started by the addition of the enzyme. The reactions were mixed and incubated at room temperature for 1 hr, after which the reactions were quenched by the addition of 50 μL of 8% phosphoric acid. At this point, 90 μL aliquots of the samples were applied to positively charged DEAE 96-well filter plates (Millipore Corporation MADENOB10). The plates were incubated for 30 min at room temperature. The samples were aspirated and the wells were washed 3 times with 200 μL of 0.5% phosphoric acid. To each well, 50 μL of scintillation cocktail was added and counted for 60 sec in a TopCount microplate scintillation counter (Packard Instrument Company). The concentration of a compound that inhibited the activity of KDR by 50% (IC50) was determined based its inhibition curve.

Test [1] deals with CDK2 complexed with cyclin A (Homo sapiens, UniProt P24941). The test can be described thus: Cyclin dependent kinase activity assay (33P peptide phosphorylation). The test is classed as biochemical. The note with it: 0.1 mM ATP, read-out: CDK 2 Activity*. How it is done:
as §1

Another test relates to panel of protein kinases. The test can be described thus: Specificity studies, summary in words. The test is classed as biochemical. To be noted: against a panel of protein kinases. As to the method: The assays of kinases were determined by monitoring the phosphorylation of appropriate substrates. The assay mixture contained 0.1 mM cold ATP ^33P-γ-ATP (2000-4000 cpm/μL), 0.1 mM substrate, 1 mM DTT, and 10 mM MgCl2 in 100 mM HEPES buffer pH 7.4. The assay mixture, along with inhibitor and kinase enzyme (0.3-0.4 U/mL), was mixed together in a microtiter 96-well plate in a final volume of 40 μL, sealed and incbated for 1 hour at 30° C. Following incubation, a 15 μL aliquot was added to a Whatman P81 filtration plate containing 100 μL 0.5% phosphoric acid. This mixture was allowed to stand for 5 minutes prior to filtration on a vacuum manifold. The filter plate was washed with 5 successive additions of 300 μL 0.5% phosporic acid. The filtration plate was air dried for 10 minutes before sealing the bottom. After addition of scintillation fluid to the sealed plate, phosphorylated substrate was quantified in a scintillation counter.

The next test has as its system A549/ATCC. The test can be described thus: In vitro tumor cell efficacy test (SRB cell viability). The class given is cell-based. To be noted: Homo sapiens, Non-Small Cell Lung Cancer, 72 hours.

CDK5 complexed with p25, sequence (Q00535 whole entry): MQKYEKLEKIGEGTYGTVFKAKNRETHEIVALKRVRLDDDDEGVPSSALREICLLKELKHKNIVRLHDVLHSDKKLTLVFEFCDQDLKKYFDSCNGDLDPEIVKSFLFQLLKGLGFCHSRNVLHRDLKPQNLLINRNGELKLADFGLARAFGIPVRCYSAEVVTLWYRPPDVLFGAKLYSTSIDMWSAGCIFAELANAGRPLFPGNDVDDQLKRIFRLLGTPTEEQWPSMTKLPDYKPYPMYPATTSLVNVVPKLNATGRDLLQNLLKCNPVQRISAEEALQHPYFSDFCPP
CDK5 complexed with p25, sequence (Q15078 99-307 partner limits assumed): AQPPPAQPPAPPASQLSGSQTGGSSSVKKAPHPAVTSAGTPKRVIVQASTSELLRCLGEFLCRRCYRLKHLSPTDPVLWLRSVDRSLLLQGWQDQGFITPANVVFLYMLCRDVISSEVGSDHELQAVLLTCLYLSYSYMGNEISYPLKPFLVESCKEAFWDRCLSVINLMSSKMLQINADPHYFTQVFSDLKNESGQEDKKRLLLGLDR
KDR, sequence (P35968 20-1356, species assumed): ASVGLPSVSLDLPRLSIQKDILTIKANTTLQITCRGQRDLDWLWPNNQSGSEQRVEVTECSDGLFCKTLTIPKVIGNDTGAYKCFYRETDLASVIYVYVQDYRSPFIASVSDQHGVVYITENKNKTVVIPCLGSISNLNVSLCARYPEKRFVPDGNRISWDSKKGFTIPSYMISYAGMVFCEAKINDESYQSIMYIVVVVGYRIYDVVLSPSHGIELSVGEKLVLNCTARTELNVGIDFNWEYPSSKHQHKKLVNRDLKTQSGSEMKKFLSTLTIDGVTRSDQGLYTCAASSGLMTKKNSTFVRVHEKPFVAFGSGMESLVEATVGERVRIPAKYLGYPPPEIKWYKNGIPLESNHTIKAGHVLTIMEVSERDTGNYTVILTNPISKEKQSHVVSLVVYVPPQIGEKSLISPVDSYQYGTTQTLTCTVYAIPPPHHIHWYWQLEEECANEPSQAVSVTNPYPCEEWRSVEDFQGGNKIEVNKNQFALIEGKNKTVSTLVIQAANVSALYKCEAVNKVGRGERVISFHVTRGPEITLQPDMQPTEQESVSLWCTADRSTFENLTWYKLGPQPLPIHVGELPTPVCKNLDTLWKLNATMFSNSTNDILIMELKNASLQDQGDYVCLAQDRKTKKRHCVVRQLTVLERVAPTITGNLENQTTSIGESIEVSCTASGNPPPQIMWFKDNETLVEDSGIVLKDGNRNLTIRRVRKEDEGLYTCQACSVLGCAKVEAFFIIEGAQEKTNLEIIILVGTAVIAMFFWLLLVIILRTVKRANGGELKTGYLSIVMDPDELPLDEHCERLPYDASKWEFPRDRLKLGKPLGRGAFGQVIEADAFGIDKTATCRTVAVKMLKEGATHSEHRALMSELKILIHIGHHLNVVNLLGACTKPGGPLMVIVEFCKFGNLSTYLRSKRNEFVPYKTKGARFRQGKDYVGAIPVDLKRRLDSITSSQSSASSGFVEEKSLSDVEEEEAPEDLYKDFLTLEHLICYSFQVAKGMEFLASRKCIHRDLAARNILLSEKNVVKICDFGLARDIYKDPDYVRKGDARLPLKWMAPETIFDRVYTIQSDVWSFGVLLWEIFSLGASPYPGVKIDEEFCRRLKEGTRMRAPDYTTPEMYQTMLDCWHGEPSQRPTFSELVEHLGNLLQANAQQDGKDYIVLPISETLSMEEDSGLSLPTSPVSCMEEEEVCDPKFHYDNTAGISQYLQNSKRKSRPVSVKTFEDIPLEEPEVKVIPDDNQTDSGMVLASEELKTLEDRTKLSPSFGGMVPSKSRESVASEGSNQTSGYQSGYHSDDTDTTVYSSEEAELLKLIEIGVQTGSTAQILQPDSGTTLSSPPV

Take `Nc1nc(-c2cc(-c3ccc(O)cc3)ccc2O)cc(N2CCCC2CO)n1` (stereo in doubt) [Example 79, 3-[2-Amino-6-(2R-hydroxymethyl-pyrrolidin-1-yl)-pyrimidin-4-yl]-biphenyl-4,4′-diol]: the IC50 on CDK5 complexed with p25 was below 500 nM; against KDR it was 1000 to 20000 nM.

For `NC(=S)N/N=C/c1cc(-c2ccc(CO)cc2)ccc1O` [Example 10, 5-(4-Hydroxymethylphenyl)salicylaldehyde Thiosemicarbazone], the values for the IC50 (on CDK5 complexed with p25; in test [1]) were 500 to 2000 nM and 2000 to 5000 nM, respectively.

In the case of `Nc1nccc(-c2cc(-c3ccc(O)cc3)ccc2O)n1` [3-(2-Amino-pyrimidin-4-yl)-biphenyl-4,4′-diol], the “specificity for CDK5 and CDK2” value in the test with panel of protein kinases is reported as “highly specific”. The same compound had an LC50 in the test with A549/ATCC above 100000 nM.

With `NC(=O)/C=C/c1ccc(O)c(/C=N/NC(N)=S)c1` [Example 39, 3-Formyl-4-hydroxycinnamide, Thiosemicarbazone], the IC50 at CDK5 complexed with p25 was above 5000 nM; in test [1], 500 to 2000 nM.
